Experimental data: patent EP0404162A1, “Composition for treating pigmentation” (priority 1989, dated 1990)

Experiments:
[1] = Toxicity (LD50), subcutaneous administration, mice; details: mouse, in vivo, sc, read-out: LD₅₀
Method: (§1) The toxicity of kojic acid which is the effective ingredient of the present invention is extremely low; LD₅₀ is 2.050 mg/kg in mice and 2.260 mg/kg in rats, by subcutaneous administration. Therefore, the present invention is quite safe as a medicament.

[2] = Toxicity (LD50), subcutaneous administration, rats; details: rat, in vivo, sc, read-out: LD₅₀
Method: as §1

O=c1cc(CO)occ1O [kojic acid, 5-oxy-2-oxymethyl-γ-pyrone]
LD50 [1]: 2.05 mg/kg | LD50 [2]: 2.26 mg/kg
